The record followed here is patent US10463710B2, “Short synthetic peptide for the treatment and/or prophylaxis of autoimmune and inflammatory disorders” (MacKay Memorial Hospital, priority 2015, dated 2019).

“Also recorded” adds a separate entry of the source. Ends that are not written are not given here.

The subject of data set [1] is Raw264.7 macrophage cells. Put plainly: in vitro. The conditions noted are these: Example 1 results. Format: cell-based, murine.
A short description of the next data set: in vitro. Format: cell-based, murine. The settings on record: mouse.

What is called viability is a read-out of living cells in per cent, often relative to untreated cells. In the case of `CC(=O)N[C@@H](Cc1ccccc1)C(=O)N[C@@H](CC(C)C)C(=O)N[C@@H](Cc1ccc(O)cc1)C(=O)N[C@@H](CCCNC(=N)N)C(=O)N[C@H](C(=O)N[C@@H](CCCNC(=N)N)C(=O)N[C@@H](CO)C(N)=O)C(C)C` [7-mer (D→F), NH2-Phe-Leu-Tyr-Arg-Val-Arg-Ser-COOH], the “bioactivity / inhibitory activity relative to 7-mer (in words)” value in data set [1] is “could sustain 7-mer bioactivity, only partly; also recorded: relatively the same bioactivity that is similar to the 7-mer”. For the same molecule, the viability at 24 h, 20 μM in the data set “in vitro” (Raw264.7 cell viability) turned out to be 61.9 ± 4.91%.
Regarding `CC(=O)N[C@@H](CC(C)C)C(=O)N[C@@H](CC(C)C)C(=O)N[C@@H](Cc1ccc(O)cc1)C(=O)N[C@@H](CCCNC(=N)N)C(=O)N[C@H](C(=O)N[C@@H](CCCNC(=N)N)C(=O)N[C@@H](CO)C(N)=O)C(C)C` [7-mer (D→L), NH2-Leu-Leu-Tyr-Arg-Val-Arg-Ser-COOH], the “bioactivity / inhibitory activity relative to 7-mer (in words)” value in data set [1] is “could sustain 7-mer bioactivity, only partly; also recorded: relatively the same bioactivity that is similar to the 7-mer”. In addition, in “in vitro” (Raw264.7 cell viability), the viability at 24 h, 20 μM is 57.6 ± 2.65%.
With `CC(=O)N[C@H](C(=O)N[C@@H](CC(C)C)C(=O)N[C@@H](Cc1ccc(O)cc1)C(=O)N[C@@H](CCCNC(=N)N)C(=O)N[C@H](C(=O)N[C@@H](CCCNC(=N)N)C(=O)N[C@@H](CO)C(N)=O)C(C)C)C(C)C` [7-mer (D→V), NH2-Val-Leu-Tyr-Arg-Val-Arg-Ser-COOH], the “bioactivity / inhibitory activity relative to 7-mer (in words)” value in data set [1] was “relatively the same bioactivity that is similar to the 7-mer”; in data set [1] (listed as 7-mer (D→N)), “could sustain 7-mer bioactivity, only partly”. In the data set “in vitro” (Raw264.7 cell viability), the viability at 24 h, 20 μM was determined as 56.8 ± 3.53%.
Turning to `CC(=O)N[C@@H](CC(=O)O)C(=O)N[C@@H](CC(C)C)C(=O)N[C@@H](Cc1ccc(O)cc1)C(=O)N[C@@H](CCCNC(=N)N)C(=O)N[C@H](C(=O)N[C@@H](CCC(N)=O)C(=O)N[C@@H](CO)C(N)=O)C(C)C` [7-mer (R2→Q), NH2-Asp-Leu-Tyr-Arg-Val-Gln-Ser-COOH], the “bioactivity / inhibitory activity relative to 7-mer (in words)” value in data set [1] is reported as “could sustain 7-mer bioactivity, only partly”. Also, in “in vitro” (Raw264.7 cell viability), the viability at 24 h, 20 μM came to 68.4 ± 1.25%.
For `CC(=O)N[C@@H](CC(=O)O)C(=O)N[C@@H](CC(C)C)C(=O)N[C@@H](Cc1ccc(O)cc1)C(=O)N[C@@H](CCCNC(=N)N)C(=O)N[C@@H](CC(C)C)C(=O)N[C@@H](CCCNC(=N)N)C(=O)N[C@@H](CO)C(N)=O` [7-mer (V→L), NH2-Asp-Leu-Tyr-Arg-Leu-Arg-Ser-COOH], in data set [1], the “bioactivity / inhibitory activity relative to 7-mer (in words)” value was “could sustain 7-mer bioactivity, only partly; also recorded: relatively the same bioactivity that is similar to the 7-mer”. For the same molecule, the viability at 24 h, 20 μM in “in vitro” (Raw264.7 cell viability) was found to be 61.1 ± 3.96%.
In the case of `CC(=O)N[C@H](CC(=O)O)C(=O)N[C@@H](CC(C)C)C(=O)N[C@@H](Cc1ccc(O)cc1)C(=O)N[C@@H](CCCNC(=N)N)C(=O)N[C@H](C(=O)N[C@@H](CCCNC(=N)N)C(=O)N[C@@H](CO)C(N)=O)C(C)C` [7-mer DD, NH2-(D-Asp)-Leu-Tyr-Arg-Val-Arg-Ser-COOH], the viability at 24 h, 20 μM in the data set “in vitro” (Rar264.7 cell viability) worked out at 52.1 ± 1.45%.
In the case of `CC(=O)N[C@@H](CC(=O)O)C(=O)N[C@H](CC(C)C)C(=O)N[C@@H](Cc1ccc(O)cc1)C(=O)N[C@@H](CCCNC(=N)N)C(=O)N[C@H](C(=O)N[C@@H](CCCNC(=N)N)C(=O)N[C@@H](CO)C(N)=O)C(C)C` [7-mer DL, NH2-Asp-(D-Leu)-Tyr-Arg-Val-Arg-Ser-COOH], the “bioactivity / inhibitory activity relative to 7-mer (in words)” value in data set [1] is listed as “lose its biological activity”. For the same molecule, the viability at 24 h, 20 μM in “in vitro” (Rar264.7 cell viability) is 101 ± 1.48%.
For the molecule `CC(=O)N[C@@H](CC(=O)O)C(=O)N[C@@H](CC(C)C)C(=O)N[C@@H](Cc1ccc(O)cc1)C(=O)N[C@@H](CCCNC(=N)N)C(=O)N[C@H](C(=O)N[C@H](CCCNC(=N)N)C(=O)N[C@@H](CO)C(N)=O)C(C)C` [7-mer DR2, NH2-Asp-(D-Leu)-Tyr-Arg-Val-(D-Arg)-Ser-COOH], in data set [1], the “bioactivity / inhibitory activity relative to 7-mer (in words)” value is given as “lose its biological activity”. The viability at 24 h, 20 μM in “in vitro” (Rar264.7 cell viability) was found to be 103 ± 2.51%.
On the same counts, the results for `CC(=O)N[C@@H](CC(=O)O)C(=O)N[C@@H](CC(C)C)C(=O)N[C@@H](Cc1ccc(O)cc1)C(=O)N[C@H](CCCNC(=N)N)C(=O)N[C@H](C(=O)N[C@@H](CCCNC(=N)N)C(=O)N[C@@H](CO)C(N)=O)C(C)C` [7-mer DR, NH2-Asp-Leu-Tyr-(D-Arg)-Val-Arg-Ser-COOH] are “lose its biological activity” and 100 ± 2.58%.
In the case of `CC(=O)N[C@@H](CC(=O)O)C(=O)N[C@@H](CC(C)C)C(=O)N[C@@H](Cc1ccc(O)cc1)C(=O)N[C@@H](CCCNC(=N)N)C(=O)N[C@H](C(=O)N[C@@H](CCCNC(=N)N)C(=O)N[C@H](CO)C(N)=O)C(C)C` [7-mer DS, NH2-Asp-Leu-Tyr-Arg-Val-Arg-(D-Ser)-COOH], the “bioactivity / inhibitory activity relative to 7-mer (in words)” value in data set [1] is recorded as “lose its biological activity”. In the data set “in vitro” (Rar264.7 cell viability), the viability at 24 h, 20 μM stood at 107 ± 2.23%.
As to `CC(=O)N[C@@H](CC(=O)O)C(=O)N[C@@H](CC(C)C)C(=O)N[C@@H](Cc1ccc(O)cc1)C(=O)N[C@@H](CCCNC(=N)N)C(=O)N[C@@H](C(=O)N[C@@H](CCCNC(=N)N)C(=O)N[C@@H](CO)C(N)=O)C(C)C` [7-mer DV, NH2-Asp-Leu-Tyr-Arg-(D-Val)-Arg-Ser-COOH], in the data set “in vitro” (Rar264.7 cell viability), the viability at 24 h, 20 μM is 57.9 ± 6.2%.
As to `CC(=O)N[C@@H](CC(=O)O)C(=O)N[C@@H](CC(C)C)C(=O)N[C@H](Cc1ccc(O)cc1)C(=O)N[C@@H](CCCNC(=N)N)C(=O)N[C@H](C(=O)N[C@@H](CCCNC(=N)N)C(=O)N[C@@H](CO)C(N)=O)C(C)C` [7-mer DY, NH2-Asp-Leu-(D-Tyr)-Arg-Val-Arg-Ser-COOH], the “bioactivity / inhibitory activity relative to 7-mer (in words)” value in data set [1] is “lose its biological activity”. In addition, in the data set “in vitro” (Rar264.7 cell viability), the viability at 24 h, 20 μM was 107.5 ± 0.63%.
For `CC(=O)N[C@@H](C)C(=O)N[C@@H](CC(C)C)C(=O)N[C@@H](Cc1ccc(O)cc1)C(=O)N[C@@H](CCCNC(=N)N)C(=O)N[C@H](C(=O)N[C@@H](CCCNC(=N)N)C(=O)N[C@@H](CO)C(N)=O)C(C)C` [7-mer Da, NH2-Ala-Leu-Tyr-Arg-Val-Arg-Ser-COOH], the “bioactivity / inhibitory activity relative to 7-mer (in words)” value in data set [1] was “could sustain the inhibitory activity”. Further, the viability at 24 h, 20 μM in the data set “in vitro” (Raw264.7 cell viability) amounted to 52.9 ± 0.84%.
Take `CC[C@H](C)[C@H](NC(=O)[C@H](CC(=O)O)NC(C)=O)C(=O)N[C@@H](Cc1ccc(O)cc1)C(=O)N[C@@H](CCCNC(=N)N)C(=O)N[C@H](C(=O)N1CCC[C@H]1C(=O)N[C@@H](CO)C(N)=O)C(C)C` [7-mer IP, NH2-Asp-Ile-Tyr-Arg-Val-Pro-Ser-COOH]: the “bioactivity / inhibitory activity relative to 7-mer (in words)” value in data set [1] is “could sustain 7-mer bioactivity, only partly”. Moreover, the viability at 24 h, 20 μM in “in vitro” (Raw264.7 cell viability) was 81.7 ± 4.5%.
Turning to `CC(=O)N[C@@H](CC(=O)O)C(=O)N[C@@H](CC(C)C)C(=O)N[C@@H](Cc1ccc(O)cc1)C(=O)N[C@@H](CCCCN)C(=O)N[C@H](C(=O)N1CCC[C@H]1C(=O)N[C@@H](CO)C(N)=O)C(C)C` [7-mer KP, NH2-Asp-Leu-Tyr-Lys-Val-Pro-Ser-COOH], the “bioactivity / inhibitory activity relative to 7-mer (in words)” value in data set [1] is “could sustain 7-mer bioactivity, only partly”. Further, in “in vitro” (Raw264.7 cell viability), the viability at 24 h, 20 μM stood at 81.2 ± 3.43%.
On the same counts, the results for `CC(=O)N[C@@H](CC(=O)O)C(=O)N[C@@H](C)C(=O)N[C@@H](Cc1ccc(O)cc1)C(=O)N[C@@H](CCCNC(=N)N)C(=O)N[C@H](C(=O)N[C@@H](CCCNC(=N)N)C(=O)N[C@@H](CO)C(N)=O)C(C)C` [7-mer La, NH2-Asp-Ala-Tyr-Arg-Val-Arg-Ser-COOH] are “could sustain the inhibitory activity” and 57.4 ± 1.71%.
With `CSCC[C@H](NC(=O)[C@H](CCCNC(=N)N)NC(=O)[C@H](Cc1ccc(O)cc1)NC(=O)[C@H](CC(C)C)NC(=O)[C@H](CC(=O)O)NC(C)=O)C(=O)N[C@@H](CCCCN)C(=O)N[C@@H](CO)C(N)=O` [7-mer MK, NH2-Asp-Leu-Tyr-Arg-Met-Lys-Ser-COOH], in data set [1], the “bioactivity / inhibitory activity relative to 7-mer (in words)” value is listed as “could sustain 7-mer bioactivity, only partly”. Also, the viability at 24 h, 20 μM in “in vitro” (Raw264.7 cell viability) is 81.4 ± 0.64%.
For `CC(=O)N[C@@H](CC(=O)O)C(=O)N[C@@H](CC(C)C)C(=O)N[C@@H](Cc1ccc(O)cc1)C(=O)N[C@@H](CCCNC(=N)N)C(=O)N[C@H](C(=O)N[C@@H](C)C(=O)N[C@@H](CO)C(N)=O)C(C)C` [7-mer R2a, NH2-Asp-Leu-Tyr-Arg-Val-Ala-Ser-COOH], the viability at 24 h, 20 μM in the data set “in vitro” (Raw264.7 cell viability) stood at 94.6 ± 1.65%.
Same read-out and setting: for `CC(=O)N[C@@H](CC(=O)O)C(=O)N[C@@H](CC(C)C)C(=O)N[C@@H](Cc1ccc(O)cc1)C(=O)N[C@@H](C)C(=O)N[C@H](C(=O)N[C@@H](CCCNC(=N)N)C(=O)N[C@@H](CO)C(N)=O)C(C)C` [7-mer Ra, NH2-Asp-Leu-Tyr-Ala-Val-Arg-Ser-COOH] the value was 99.5 ± 1.51%; for `CC(=O)N[C@@H](CC(=O)O)C(=O)N[C@@H](CC(C)C)C(=O)N[C@@H](Cc1ccc(O)cc1)C(=O)N[C@@H](CCCNC(=N)N)C(=O)N[C@H](C(=O)N[C@@H](CCCNC(=N)N)C(=O)N[C@@H](C)C(N)=O)C(C)C` [7-mer Sa, NH2-Asp-Leu-Tyr-Arg-Val-Arg-Ala-COOH], 93.1 ± 2.47%; for `CC(=O)N[C@@H](CC(=O)O)C(=O)N[C@@H](CC(C)C)C(=O)N[C@@H](Cc1ccc(O)cc1)C(=O)N[C@@H](CCCNC(=N)N)C(=O)N[C@@H](C)C(=O)N[C@@H](CCCNC(=N)N)C(=O)N[C@@H](CO)C(N)=O` [7-mer Va, NH2-Asp-Leu-Tyr-Arg-Ala-Arg-Ser-COOH], 97.7 ± 0.6%.
Same read-out and setting: the value for `CC(=O)N[C@@H](CC(=O)O)C(=O)N[C@@H](CC(C)C)C(=O)N[C@@H](C)C(=O)N[C@@H](CCCNC(=N)N)C(=O)N[C@H](C(=O)N[C@@H](CCCNC(=N)N)C(=O)N[C@@H](CO)C(N)=O)C(C)C` [7-mer Ya, NH2-Asp-Leu-Ala-Arg-Val-Arg-Ser-COOH] was 97.6 ± 0.56%.
Take “NH2-Asp-Leu-Tyr-Arg-Val-Arg-COOH (DLYRVR; not fully specified (N-terminus, C-terminus); printed as NH2-Asp-Leu-Tyr-Arg-Val-Arg-COOH) [control peptide, serine residue of the 7-mer deleted, reference compound]”: the “bioactivity / inhibitory activity relative to 7-mer (in words)” value in data set [1] is reported as “does not possess any biological function”.
